Reference: publication PMC11784013, “Potassium molybdate blocks APN-dependent coronavirus entry by degrading receptor via PIK3C3-mediated autophagy” (Journal of Virology, 2024)

Experiments:
[1] = system: autophagy markers P62 and LC3; assay: Autophagy markers P62 and LC3 in ST cells (western blot); assay type: cell-based, swine; details: PM 10 mM; for LC3 (LC3-Ⅱ) level, western blot, relative to WT without PM (=1) / P62 level, western blot, relative to WT without PM (=1): PRCV 0.1 MOI, 16 h
Experimental: Fig 6 PM degrades APN by autophagy-lysosome pathway. (A) ST cells were treated with PM (10 mM) and infected with TGEV (0.1 MOI) in the presence and absence of MG132 (20 µM), 3-MA (20 mM), and Z-VAD-FMK (20 µM) for 16 h. The APN expression and TGEV N were detected by western blot. (B) ST cells were treated with PM (10 mM) at 2, 4, 8, and 16 h, autophagy markers P62 and LC3, and APN were measured by western blot. (C) ST cells were transfected with RFP-EGFP-LC3B for 12 h and then treated with PM (10 mM) or H2O for 36 h. The fluorescence of GFP and RFP was detected by confocal microscopy, scale bar: 5 µm. (D) Quantification of autophagosomes (Merge) and autolysosomes (RFP) from C using Image J software. (E) ST cells were treated with PM or H2O for 24 h. The autophagosomes (yellow arrow) and autolysosomes (asterisk) were detected by transmission electron microscope, scale bar: 2 µm. (F) The number of autophagosomes (yellow arrow) and autolysosomes (asterisk) was quantified. All western blot results were calculated by Image J. Results are presented as mean ± SD of data from three independent experiments. ***, P ≤ 0.001.
Cotransfected cells were washed with cold PBS twice and lysed with NP40 lysis buffer (Beyotime, China, P0013F) supplemented with 1 mM PMSF (Beyotime, China, ST506) and phosphatase inhibitors (Beyotime, China, P1096). Lysis buffer containing cells was added to 20 µL of protein A+G agarose beads (Beyotime, China, P2055) and IgG (Santa Cruz, USA, 2025) on a rotating device for 4 h at 4°C to remove nonspecific proteins, after which the mixture was centrifuged at 2,500 rpm for 5 min. The supernatant was harvested, and anti-Flag/Myc/His/IgG antibodies were added to the samples on a rocking platform overnight at 4°C. Subsequently, 40 µL of protein A+G agarose beads were added to the supernatant containing the antibody, which was incubated for 4 h at 4°C on a rotating device. After washing with lysis buffer three times, the immunoprecipitates were collected by centrifugation, and the supernatant was discarded. Immunoprecipitated proteins were detected by western blotting. For the western blot, the proteins were separated by SDS‒PAGE and transferred onto a PVDF membrane (GE, USA, 10600023). The membranes were blocked in 5% nonfat milk at room temperature for 2 h and then incubated with specific primary antibodies overnight. Subsequently, the membrane was incubated with the secondary antibody for 1 h at room temperature. Finally, the proteins on the membranes were visualized with WesternBright ECL (Advansta, USA, K-12045-D50).
Fig. S8. PM inhibits PRCV infection by degrading APN via PIK3C3-mediated autophagy. (A-C) WT ST cells and PIK3C3 KO ST cells were treated with PM (10 mM) and infected with PRCV (0.1 MOI) for 16 h. Then the APN, PIK3C3, ATG14, BECN1, P62, PRCV N and LC3 were detected by western blot (A), and viral titers and PRCV N mRNA level were determined by TCID50 (B) and RT-qPCR (C) . (D-F) WT ST cells and PIK3C3 KO ST cells transfected with pCMV-Myc and pCMV-Myc-PIK3C3 respectively for 24 h were treated with PM (10 mM) and infected with PRCV (0.1 MOI) for 16 h. The APN, PIK3C3, P62, PRCV N and LC3 were determined by western blot (D). TCID50 (E) and RT-qPCR (F) were performed to detect viral titers and PRCV N m RNA level. All western blot results were calculated by Image J. Results are presented as mean ± SD of data from three independent experiments (also on this page, place not known: 6 8 10 12 Viral load(log copies/ul) *** 2 4 6 8 log10 TCID50/ml *** 6 8 10 12 + Viral load(log copies/ul) PIK3C3-Myc + - + + + *** *** 2 4 6 8 log10 TCID50/ml *** + + + + PIK3C3-Myc - - - + - + + + *** WT KO PM (C). WT KO PM PRCV PM - + + PRCV + + + WT PIK3C3 KO PIK3C3 PRCV PIK3C3-Myc - - - + PM - + + + PRCV + + + + WT PIK3C3 KO 0 0) […]

PIK3C3 = PIK3C3 expression in ST cells (western blot); assay type: cell-based, porcine; details: PM 10 mM, 16 h; for PIK3C3 level, western blot, relative to WT without PM (=1): PRCV 0.1 MOI
Experimental: Fig 7 PM degrades APN expression via activating PIK3C3-mediated autophagy. (A) Graphical representation for autophagy and the targets of different autophagy inhibitors. (B) ST cells were treated with PM (10 mM) in the presence and absence of 3-MA (20 mM), SBI0206965 (20 µM), and 3BDO (30 µM) for 16 h, and the APN expression was detected by western blot. (C) ST cells were treated with PM (10 mM) in the presence and absence of 3-MA (20 mM) for 16 h, and the APN, PIK3C3, ATG14, BECN1, P62, and LC3 were measured by western blot. (D) ST cells were transfected with PIK3C3 siRNA-1, PIK3C3 siRNA-2, PIK3C3 siRNA-3, PIK3C3 siRNA-4, and NC siRNA for 24 h, the PIK3C3 expression was detected by western blot. (E) ST cells were transfected with PIK3C3 siRNA-4 or NC siRNA for 24 h and then treated with PM (10 mM) for 16 h. The APN, PIK3C3, ATG14, BECN1, P62, and LC3 were detected by western blot. (F) Sequencing diagram for WT ST cells and PIK3C3 KO ST cells. (G) PIK3C3 was detected by western blot in WT ST cells and PIK3C3 KO ST cells. (H) WT ST cells and PIK3C3 KO ST cells were treated with PM (10 mM) for 16 h and then the APN, PIK3C3, ATG14, BECN1, P62, and LC3 were detected by western blot. (I) WT ST cells and PIK3C3 KO ST cells were transfected with pCMV-Myc and pCMV-Myc-PIK3C3, respectively, for 24 h and treated with PM (10 mM) for 16 h. The APN, PIK3C3, P62, and LC3 were detected by western blot. All western blot results were calculated by Image J. All experiments were performed in triplicate.
Fig. S8. PM inhibits PRCV infection by degrading APN via PIK3C3-mediated autophagy. (A-C) WT ST cells and PIK3C3 KO ST cells were treated with PM (10 mM) and infected with PRCV (0.1 MOI) for 16 h. Then the APN, PIK3C3, ATG14, BECN1, P62, PRCV N and LC3 were detected by western blot (A), and viral titers and PRCV N mRNA level were determined by TCID50 (B) and RT-qPCR (C) . […] The APN, PIK3C3, P62, PRCV N and LC3 were determined by western blot (D). […]

[2] = Fig. S8D, PIK3C3 KO ST cells with PIK3C3-Myc
[3] = Fig. S8D, PIK3C3 KO ST cells without PIK3C3-Myc
[4] = Fig. S8D, WT ST cells with pCMV-Myc

Question: For `[K+].[K+].[O]=[Mo](=[O])([O-])[O-]` [PM, potassium molybdate], which “LC3 (LC3-Ⅱ) level, western blot, relative to WT without PM (=1)” value (from here on “LC3 … relative to WT without PM (=1)”) ([1]; Fig. S8A, PIK3C3 KO ST cells) is on record?
Answer: 0.95

Question: And the “P62 level, western blot, relative to WT without PM (=1)” value ([1]; Fig. S8A, PIK3C3 KO ST cells)?
Answer: 0.83

Question: What about the “LC3 … relative to WT without PM (=1)” value ([1]; Fig. S8A, WT ST cells) of the same compound?
Answer: 3.42

Question: What about the “P62 level, western blot, relative to WT without PM (=1)” value ([1]; Fig. S8A, WT ST cells) of the same compound?
Answer: 0.16

Question: And the “LC3 … relative to WT without PM (=1)” value [1, 2]?
Answer: 3.45

Question: And the “P62 level, western blot, relative to WT without PM (=1)” value [1, 2]?
Answer: 0.27

Question: And the “LC3 … relative to WT without PM (=1)” value [1, 3]?
Answer: 1.12

Question: What about the “P62 level, western blot, relative to WT without PM (=1)” value [1, 3] of the same compound?
Answer: 0.91

Question: What about the “LC3 … relative to WT without PM (=1)” value [1, 4] of the same compound?
Answer: 3.61

Question: What about the “P62 level, western blot, relative to WT without PM (=1)” value [1, 4] of the same compound?
Answer: 0.26

Question: And the “LC3-II generation from LC3-I” value ([1]; ST cells, 2-16 h, western blot)?
Answer: more of the autophagosome protein LC3-II was generated

Question: What about the p62 level ([1]; ST cells, 2-16 h, western blot) of the same compound?
Answer: p62 was consumed

Question: And the “PIK3C3 level, western blot, relative to WT without PM (=1)” value (PIK3C3; Fig. S8A, WT ST cells)?
Answer: 2.83

Question: And the “PIK3C3 level, western blot, relative to WT without PM (=1)” value (PIK3C3; [4])?
Answer: 1.73

Question: What about the PIK3C3 expression (PIK3C3; ST cells, western blot) of the same compound?
Answer: activated PIK3C3 expression
